Measured values taken from US11608319B2, “Beta-amino acid derivative, kinase inhibitor and pharmaceutical composition containing the same, and method for performing an in vivo related application that benefits from the inhibition of a kinase” (Industrial Technology Research Institute, priority 2019, dated 2023).
Values joined by “and” are separate entries in the source; they are usually repeats but may differ in a detail not shown here. Equal values may be shown once. Where a name gives a salt, the structure may show the parent alone. Read-outs that look alike come from different tables or passages of the source.

How the values were obtained:
[1] = tested on: rabbit eyes with normal intraocular pressure; conditions: for maximum effect (Emax) dose in the normal intraocular pressure rabbit model: eye drop concentration
Description: The maximal effect (Emax) dose evaluation of the intraocular pressure reduction model in normal rabbit
Animals: Male New Zealand white rabbits (n=7/each group);
Administration: 50 μL of the test compound was instilled in the right eye (dosed eye) and 50 μL of the vehicle (without the test compound) in the left eye (control eye) of each experimental animal. The 3 formulation mentioned above were administered once a day for 3 consecutive days.
The intraocular pressure of each animal was measured by Tono-Vet (iCare) before administration (0 hours) and 2, 4, 6 and 8 hours after administration on Day 1 and Day 3.
The maximum magnitude of the reduction in intraocular pressure %=(Intraocular pressure of the control eye−Intraocular pressure of the dosed eye)/Intraocular pressure of the control eye*100
The data presented in this experiment is the data that has removed the unqualified data (white rabbits with an intraocular pressure difference ≥2 mmHg (n=1) in the two eyes on Day 1 and >5 mmHg in the two eyes before the administration on the Day 3 (n=1) have been removed) and removed the rebound high intraocular pressure (n=3).

[2] = tested on: rabbit eyes with normal intraocular pressure; test: Evaluation of the effect of decreasing intraocular pressure in a model of rabbit with normal intraocular pressure; assay type: in vivo, New Zealand white rabbit; conditions: for Intraocular pressure difference (mmHg): at time point of maximum effect
Description: Evaluation of the Effect of Decreasing Intraocular Pressure in a Model of Rabbit with Normal Intraocular Pressure
Experimental animal: New Zealand white rabbit, male, weighing more than 2 kg. New Zealand white rabbits were purchased from Huijun Farm (Changhua, Taiwan). After a one-week quarantine period, they were raised in MASTER LABORATORY Co., Ltd under the environmental conditions of 16-22° C., 30-70% relative humidity (RH), 8 hours day/16 hours night.
(1) Evaluation of the Effect of Reducing Intraocular Pressure
After weighing 12 New Zealand white rabbits (2.0-4.0 kg) and grouping them (n=3-6 in each group), the white rabbits were fixed with a wrap.

ROCK1 = ROCK1 (Homo sapiens (Human), UniProt Q13464); test: biochemical
Sequence of ROCK1 (Q13464 whole entry, species assumed): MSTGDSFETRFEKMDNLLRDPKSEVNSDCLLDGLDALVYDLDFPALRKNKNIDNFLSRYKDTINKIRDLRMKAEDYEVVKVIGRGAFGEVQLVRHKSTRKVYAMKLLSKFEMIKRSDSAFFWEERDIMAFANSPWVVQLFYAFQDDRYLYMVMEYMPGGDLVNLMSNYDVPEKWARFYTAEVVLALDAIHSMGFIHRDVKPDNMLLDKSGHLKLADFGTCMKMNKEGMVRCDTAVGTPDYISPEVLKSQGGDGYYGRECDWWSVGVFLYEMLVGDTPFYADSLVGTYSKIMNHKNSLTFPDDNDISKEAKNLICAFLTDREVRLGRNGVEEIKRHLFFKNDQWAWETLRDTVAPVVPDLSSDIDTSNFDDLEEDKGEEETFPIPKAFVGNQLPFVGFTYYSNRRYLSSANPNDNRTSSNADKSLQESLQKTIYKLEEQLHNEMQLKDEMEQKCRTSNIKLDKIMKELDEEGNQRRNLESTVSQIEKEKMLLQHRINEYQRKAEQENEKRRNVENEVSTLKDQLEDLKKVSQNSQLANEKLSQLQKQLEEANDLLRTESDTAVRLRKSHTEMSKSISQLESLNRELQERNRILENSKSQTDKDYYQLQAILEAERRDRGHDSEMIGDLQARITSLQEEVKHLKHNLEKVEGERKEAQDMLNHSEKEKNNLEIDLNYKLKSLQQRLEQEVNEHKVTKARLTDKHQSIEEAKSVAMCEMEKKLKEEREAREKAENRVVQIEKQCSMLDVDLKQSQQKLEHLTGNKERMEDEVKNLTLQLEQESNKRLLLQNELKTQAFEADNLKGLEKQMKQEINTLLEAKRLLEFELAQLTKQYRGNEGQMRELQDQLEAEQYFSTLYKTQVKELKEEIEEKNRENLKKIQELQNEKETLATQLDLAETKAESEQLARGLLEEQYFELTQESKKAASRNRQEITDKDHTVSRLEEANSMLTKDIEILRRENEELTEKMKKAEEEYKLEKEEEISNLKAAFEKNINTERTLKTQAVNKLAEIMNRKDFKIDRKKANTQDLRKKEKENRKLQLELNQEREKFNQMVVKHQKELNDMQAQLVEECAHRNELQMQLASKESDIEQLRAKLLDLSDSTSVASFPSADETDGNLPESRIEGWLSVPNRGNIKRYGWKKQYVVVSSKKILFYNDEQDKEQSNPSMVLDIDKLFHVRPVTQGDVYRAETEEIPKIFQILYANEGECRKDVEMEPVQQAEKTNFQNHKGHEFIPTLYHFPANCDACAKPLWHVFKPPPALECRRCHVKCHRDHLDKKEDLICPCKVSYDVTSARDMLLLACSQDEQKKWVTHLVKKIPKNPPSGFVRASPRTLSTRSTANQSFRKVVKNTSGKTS

[3] = tested on: rabbit eyes with high intraocular pressure induced by magnetic beads; test: Model of magnetic bead induced high intraocular pressure rabbit (intraocular pressure >30 mmHg); assay type: in vivo, New Zealand white rabbit; conditions: for Maximum intraocular pressure difference (mmHg): experiment of Table 13
Description: Evaluation of the effect of reducing intraocular pressure in model of magnetic bead induced high intraocular pressure rabbit (high intraocular pressure model with intraocular pressure >30 mmHg)
Experimental animal: New Zealand white rabbit, male, body weight 2.0-3.0 kg. New Zealand white rabbits were purchased from Huijun Farm (Changhua, Taiwan) before the experiment and were raised in the Animal Center of National Chiao Tung University.
Experimental method: After weighing and grouping male New Zealand white rabbits, the New Zealand white rabbits were anesthetized with Zoletil 50 0.2 mL/kg. 50 μL of magnetic bead solution (50 mg/mL, magnetic bead size of 10 μm) was injected into the left and right anterior eye chambers of the rabbit under anesthesia to make rabbit eyes become a state of high intraocular pressure. After the injection to the anterior chamber of the eye, a strong […] iron magnet ring was immediately put around the eye for 10-20 minutes to make the magnetic beads completely block the drainage tissue of the aqueous humor. After disinfecting the eyeball with antibiotics, moisturizing eye ointment was provided to restore the eyeball, and the intraocular pressure rising was waited. […] The experiment was conducted for 2 consecutive days.

rabbit eyes [4] = test: Safety margin assay (eye irritation, OECD/OCDE 405)
MYLK4 = MYLK4 (Homo sapiens (Human), UniProt Q86YV6); test: Assay for inhibitory effect on MYLK-4, LanthaScreen Eu Kinase Binding Assay
Sequence of MYLK4 (Q86YV6 whole entry): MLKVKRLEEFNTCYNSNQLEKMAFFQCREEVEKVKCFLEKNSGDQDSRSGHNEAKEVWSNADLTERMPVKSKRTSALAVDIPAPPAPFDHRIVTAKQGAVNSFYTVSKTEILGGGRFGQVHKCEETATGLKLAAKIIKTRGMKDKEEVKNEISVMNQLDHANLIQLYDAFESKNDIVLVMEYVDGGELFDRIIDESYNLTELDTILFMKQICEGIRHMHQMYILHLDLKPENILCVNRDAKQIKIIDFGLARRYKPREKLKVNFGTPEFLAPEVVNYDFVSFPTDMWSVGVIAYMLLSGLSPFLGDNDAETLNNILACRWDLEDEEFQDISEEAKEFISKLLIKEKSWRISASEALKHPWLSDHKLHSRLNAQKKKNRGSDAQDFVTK

YSK4 = YSK4 (Homo sapiens (Human), UniProt Q56UN5); test: Assay for inhibitory effect on YSK-4, Z'-LYTE kinase assay; assay type: biochemical
Sequence of YSK4 (Q56UN5 whole entry): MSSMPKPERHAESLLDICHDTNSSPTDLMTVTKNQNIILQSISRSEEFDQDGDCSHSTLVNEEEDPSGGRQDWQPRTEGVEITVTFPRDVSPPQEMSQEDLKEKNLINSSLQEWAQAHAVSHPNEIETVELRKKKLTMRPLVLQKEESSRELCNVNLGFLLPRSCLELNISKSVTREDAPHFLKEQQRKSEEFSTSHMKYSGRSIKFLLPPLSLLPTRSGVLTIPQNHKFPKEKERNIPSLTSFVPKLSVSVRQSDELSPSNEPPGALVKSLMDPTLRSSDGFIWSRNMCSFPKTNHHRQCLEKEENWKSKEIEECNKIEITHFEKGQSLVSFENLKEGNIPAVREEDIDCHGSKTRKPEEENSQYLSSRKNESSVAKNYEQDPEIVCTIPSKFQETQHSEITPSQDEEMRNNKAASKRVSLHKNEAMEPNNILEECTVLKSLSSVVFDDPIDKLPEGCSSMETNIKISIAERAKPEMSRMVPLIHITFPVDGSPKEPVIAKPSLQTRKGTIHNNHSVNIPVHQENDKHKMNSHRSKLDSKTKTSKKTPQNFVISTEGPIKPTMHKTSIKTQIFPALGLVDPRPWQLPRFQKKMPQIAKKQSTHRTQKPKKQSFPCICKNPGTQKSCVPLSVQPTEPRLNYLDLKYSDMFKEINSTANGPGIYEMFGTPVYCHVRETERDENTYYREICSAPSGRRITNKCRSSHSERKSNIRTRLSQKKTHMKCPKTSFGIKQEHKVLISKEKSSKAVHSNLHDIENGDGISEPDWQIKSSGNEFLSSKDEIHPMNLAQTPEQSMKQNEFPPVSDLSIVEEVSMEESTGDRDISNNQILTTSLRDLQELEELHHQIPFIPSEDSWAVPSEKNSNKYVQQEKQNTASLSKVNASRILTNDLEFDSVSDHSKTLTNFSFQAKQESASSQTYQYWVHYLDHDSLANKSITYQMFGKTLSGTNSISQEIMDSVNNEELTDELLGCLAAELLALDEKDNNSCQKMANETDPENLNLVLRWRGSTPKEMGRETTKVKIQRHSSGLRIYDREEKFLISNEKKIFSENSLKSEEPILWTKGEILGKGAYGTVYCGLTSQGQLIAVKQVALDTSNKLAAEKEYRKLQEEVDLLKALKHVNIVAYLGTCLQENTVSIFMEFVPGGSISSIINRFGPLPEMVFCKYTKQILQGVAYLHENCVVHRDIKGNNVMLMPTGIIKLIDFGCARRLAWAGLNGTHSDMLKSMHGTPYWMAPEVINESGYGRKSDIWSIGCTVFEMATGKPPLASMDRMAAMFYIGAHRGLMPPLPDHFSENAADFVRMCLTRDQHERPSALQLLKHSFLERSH
Description: C. Assay for Inhibitory Effect on YSK-4
The experimental procedure referred to the Z′-LYTE Screening Protocol and Assay Conditions provided by ThermoFisher Scientific.
C-1. Material Preparation
Peptide/Kinase Mixture was pre-diluted with Kinase Buffer to 2× working concentration.
ATP solution was pre-diluted with Kinase Buffer (50 mM HEPES pH 7.5, 0.01% BRIJ-35, 10 mM MgCl2, 1 mM EGTA) to 4× working concentration.
The development reagent solution is Novel PKC Lipid Mix, which contains 2 mg/mL Phosphatidyl Serine, 0.2 mg/mL DAG in 20 mM HEPES, pH 7.4 and 0.3% CHAPS, and was pre-diluted 10 fold with development buffer.
1. 100 nL of the above diluted test compound and 2.4 μL of kinase buffer were added to a black 384-well plate (Corning, Cat. NO. 4514), then add 5 μL of the peptide/kinase mixture mentioned above was added thereto, and after that 2.5 μL of ATP solution was added thereto, and the culture plate was shaken for 30 seconds.
2. Next, the culture plate was placed at room temperature and incubated for 60 minutes.
3. After that 5 μL of the development reagent solution was added and the culture plate was shaken for 30 seconds in the dark, and then the data was read and analyzed with a fluorescence plate reader.
In addition, for the kinase, the following control group was prepared and placed on the same culture plate as the kinase:
(1) 0% Phosphorylation Control (100% Inhibition Control)
This control yields 100% cleaved peptide in the Development Reaction.
(2) 100% Phosphorylation Control
A synthetically phosphorylated peptide of the same sequence as the peptide substrate is used as the 100% Phosphorylation Control.
The Phosphorylation percent achieved in a specific reaction well (Experimental group) was calculated based on the 0% Phosphorylation Control and 100% Phosphorylation Control.

[5] = tested on: rabbit eyes with high intraocular pressure induced by hypertonic saline; test: Model of hypertonic saline induced high intraocular pressure rabbit (acute high intraocular pressure model); assay type: in vivo, New Zealand white rabbit; set-up: AUC: unit not given beside the values; conditions: for AUC: intraocular pressure over 0-5 hours; for Maximum intraocular pressure difference (%) / Maximum intraocular pressure difference (mm Hg): versus physiological saline group
Description: Evaluation of the effect of reducing intraocular pressure in model of hypertonic saline induced high intraocular pressure rabbit (acute high intraocular pressure model)
Experimental animal: New Zealand white rabbit, male, weighing 2.0-3.0 kg. New Zealand white rabbits were purchased from a qualified laboratory animal rabbit farm in Taiwan before the experiment and were raised in the Animal Center of National Chiao Tung University.
Negative control 1: Physiological saline
Negative control 2: Vehicle without test substance (containing 5% mannitol, 20 mM boric acid and 0.125% nonoxynol-9)
Experimental method: male New Zealand white rabbits were weighed and grouped and then anesthetized. 160 μL of hypertonic saline (5% NaCl) was injected into the vitreous bodies of the left and right eyes of the rabbit under anesthesia, so that the rabbit eyes became a state of high intraocular pressure. […] The intraocular pressure (TOP) detection time points were before anesthesia (0 hours) and 0.5, 1, 1.5, 3, and 5 hours after administration.
Maximum intraocular pressure difference: The difference between an individual's TOP readings and the average TOP readings of the negative control group 1 (physiological saline) at the time point at which the maximum response is recorded (J Ocul Pharmacol Ther. 2010 April; 26(2): 125-132)

patients = conditions: cited from earlier work
rabbit eyes [6] = test: Eye irritation evaluation (OECD/OCDE 405); assay type: in vivo, New Zealand white rabbit
Description: (2) Irritation Evaluation

normal macaques = test: Intraocular pressure in animal model of macaque with normal intraocular pressure; assay type: in vivo; conditions: eye drop 0.1% or 0.03%
Description: The intraocular pressure of animals was measured by a pneumatic tonometer (Model 30™ Pneumatonometer). Animal anesthesia was required before intraocular pressure measurement. After topical administration (once a day), the intraocular pressure of the animals was measured at the set time points.

cornea of rabbit eyes = test: Observation of cornea with a slit lamp after 7 days of administration; assay type: in vivo, New Zealand white rabbit; conditions: 0.1% eye drops, continuous administration for 7 days, once a day
[7] = Content analysis for candidate drug in aqueous humor, iris and ciliary body after administration
Description: (4) Content Analysis for Candidate Drug in Aqueous Humor (AH) after Administration

humans = conditions: phase III clinical trial; cited from earlier work
[8] = tested on: Human Trabecular Meshwork (HTM) cells; test: Expression of MYLK-4 in HTM cells by Western blotting; assay type: cell-based; conditions: HTM cells treated overnight with 50 μg/mL dexamethasone
Description: Expression of MYLK-4 in Cells
Human Trabecular Meshwork (HTM) cells (Cat. NO. 6590) were obtained from ScienCell Research Laboratories. HTM cells were maintained in Trabecular Meshwork Cell Medium (TMCM) (Cat. NO. 6591). TMCM formulated from 500 mL basal medium, 10 mL FBS (Cat. NO. 0010), 5 mL trabecular meshwork cell growth supplement (TMCGS, Cat. NO. 6592) and 5 mL penicillin/streptomycin solution (P/S, Cat. NO. 503). When the cell growth reached 70-80% saturation, the HTM cells were treated overnight with 50 μg/mL dexamethasone (Cat. NO. 4902, Sigma).
The expression of MYLK4 and GAPDH in cell lysates was analyzed by Western blotting method. First, the cells were collected and washed with 1×RIPA (50 mM Tris-HCl, pH 7.4, 150 mM NaCl, 0.25% deoxycholic acid, 0.1% NP-40, 1 mM EDTA, phosphatase inhibitor and protease inhibitor mixture). Next, the cell lysates were separated by SDS-PAGE (sodium dodecyl sulfate polyacrylamide gel electrophoresis) and transferred to PVDF membrane (iBlot™ 2 Transfer Stacks, polyvinylidene fluoride membrane, Invitrogen). Immunoblotting was performed on the membrane with primary antibodies (mouse anti-MYLK4 antibody (1:1,000, Cat. NO. SAB1412951) and mouse anti-GAPDH antibody (1:1,000, Cat. NO. G8795)), wherein GAPDH was used as a loading control. […]

[9] = eye drops containing 0.1% and 0.03% Compound 20

## NCC(C(=O)Nc1ccc(-c2cn[nH]c2)cc1)c1ccccc1 (racemic) [Compound 7, N-(4-(1H-pyrazol-4-yl)phenyl)-3-amino-2-phenylpropanamide dihydrochloride]
[1]
  maximum effect (Emax) dose in the normal intraocular pressure rabbit model: 1%
[2]; dose 1%
  time point at which maximum effect is achieved: 4 h
  Intraocular pressure difference (mmHg): 5.1 mmHg
ROCK1
  IC50: 1 to 10 nM
[3]; dose 0.5%
  Maximum intraocular pressure difference (mmHg): 6.7 ± 1.6 mmHg
[3]; dose 1%
  Maximum intraocular pressure difference (mmHg): 11.8 ± 0.8 mmHg
Rabbit eyes [4]; Therapeutic index: 3
  OECD Score: Chemosis: 0
  OECD Score: Discharge: 1
  OECD Score: Redness: 1
  OECD Score: Total: 2
MYLK4
  IC50: 10 to 100 nM
YSK4; ATP 5 μM
  IC50: > 1000 nM

## Cc1ccc(C(=O)OCc2ccc([C@@H](CN)C(=O)Nc3ccc4cnccc4c3)cc2)c(C)c1 [AR-13324, Netarsudil, reference compound]
[2]; dose 1%
  time point at which maximum effect is achieved: 6 h
  Intraocular pressure difference (mmHg): 4.5 mmHg
[3]; dose 0.02%
  Maximum intraocular pressure difference (mmHg): 3.6 ± 2.1 mmHg
[3]; eye drop containing 0.02%
  reduction of intraocular pressure in percent: about 11.0%
Rabbit eyes [4]; Therapeutic index: 2
  OECD Score: Chemosis: 1
  OECD Score: Discharge: 2
  OECD Score: Redness: 1
  OECD Score: Total: 4
[5]; dose 0.02%
  AUC: 132.9
  Maximum intraocular pressure difference (%): −20.8%
  Maximum intraocular pressure difference (mm Hg): −7.7 ± 4.2 mm Hg
[5]; eye drop containing 0.02%
  difference compared with the physiological saline or the vehicle (t-test): no statistically significant difference
  reduction of the intraocular pressure: about 7.7±4.2 mmHg
MYLK4
  IC50: > 1000 nM
patients; patients <25 mmHg
  efficacy compared with Timolol: comparable to Timolol
patients; patients with intraocular pressure >25 mmHg
  efficacy compared with Timolol: not as effective as the conventional glaucoma treatment drug Timolol

## NC[C@@H](C(=O)Nc1ccc(-c2cn[nH]c2)cc1)c1ccccc1 [Compound 20, (S)—N-(4-(1H-pyrazol-4-yl)phenyl)-3-amino-2-phenylpropanamide dihydrochloride]
Rabbit eyes [6]; Compound 20 at 0.1%
  eye irritation compared with AR-13324 (0.02%): lower than AR-13324
Rabbit eyes [6]; [9]
  eye irritation: slight
[1]; 0.01%, 0.03%, 0.1%
  dose dependence of the reduction of intraocular pressure: exhibits a dose dependent effect
[1]; 0.03% Compound 20, on average
  increase of the reduction in intraocular pressure on Day 3 compared to Day 1: ~1 mmHg
[1]; Day 1, 0.01% Compound 20, 50 μL eye drop
  The magnitude of intraocular pressure reduction (ΔIOP) (mmHg): −2.9 ± 1.1 mmHg
[1]; Day 1, 0.01% Compound 20, versus control eye
  The maximum magnitude of the reduction in intraocular pressure: 18.7%
[1]; Day 1, 0.03% Compound 20, 50 μL eye drop
  The magnitude of intraocular pressure reduction (ΔIOP) (mmHg): −4.3 ± 1.2 mmHg
[1]; Day 1, 0.03% Compound 20, versus control eye
  The maximum magnitude of the reduction in intraocular pressure: 28.3%
[1]; Day 1, 0.10% Compound 20, 50 μL eye drop
  The magnitude of intraocular pressure reduction (ΔIOP) (mmHg): −5.3 ± 0.6 mmHg
[1]; Day 1, 0.10% Compound 20, versus control eye
  The maximum magnitude of the reduction in intraocular pressure: 32.2%
[1]; Day 3, 0.01% Compound 20, once a day
  The magnitude of intraocular pressure desc (ΔIOP) (mmHg): −2.7 ± 0.8 mmHg
[1]; Day 3, 0.01% Compound 20, versus control eye
  The maximum magnitude of the reduction in intraocular pressure: 15.4%
[1]; Day 3, 0.03% Compound 20, once a day
  The magnitude of intraocular pressure desc (ΔIOP) (mmHg): −5.1 ± 1.2 mmHg
[1]; Day 3, 0.03% Compound 20, versus control eye
  The maximum magnitude of the reduction in intraocular pressure: 30.5%
[1]; Day 3, 0.10% Compound 20, once a day
  The magnitude of intraocular pressure desc (ΔIOP) (mmHg): −5.2 ± 1.3 mmHg
[1]; Day 3, 0.10% Compound 20, versus control eye
  The maximum magnitude of the reduction in intraocular pressure: 32.6%
[1]
  maximum effect (Emax) dose in the normal intraocular pressure rabbit model: 0.03%
[1]; rabbit, in vivo, dihydrochloride
  Tmax: 6 h and 8 h
[2]; dose 0.03%
  time point at which maximum effect is achieved: 8 h
  Intraocular pressure difference (mmHg): 4.9 mmHg
[2]; [9]
  maximum magnitude of the reduction in intraocular pressure: 4.4-4.9 mmHg
  time of maximum effect (Emax) after administration: 6 to 8 h
ROCK1
  IC50: 1 to 10 nM
[3]; eye drop containing 0.03%
  reduction of intraocular pressure in percent: about 15.3%
[3]; eye drop containing 0.1%
  reduction of intraocular pressure in percent: about 28.8%
[5]; 0.1% Compound 20 versus 0.02% AR-13324, p<0.05
  effect in reducing intraocular pressure compared with AR-13324 (t-test): significantly better than that of AR-13324
[5]; dose 0.1%
  AUC: 99.1
  Maximum intraocular pressure difference (%): −40.4%
  Maximum intraocular pressure difference (mm Hg): −18.0 ± 6.8 mm Hg
[5]; eye drop containing 0.1%
  reduction of the intraocular pressure: about 18.0±6.8 mmHg
MYLK4
  IC50: 10 to 100 nM
Normal macaques
  side effects, such as pink eye: without obvious side effects
Normal macaques; once a day
  effect of reducing intraocular pressure compared with 0.02% AR-13324: equivalent to or better than that of AR-13324
Cornea of rabbit eyes
  state of the cornea: free of damage and turbidity
YSK4
  inhibitory effect on YSK4 (in words): simultaneously targets ROCK, MYLK-4 and YSK-4
[7]; normal rabbits
  content in the aqueous humor after administration: can reach the requirement of ROCK inhibition
[7]; rabbit eyes with normal intraocular pressure
  drug concentration at the target tissue (iris and ciliary body, aqueous humor): reaches the target effect IC90 or more within 8 hours

## C[C@H]1CNCCCN1S(=O)(=O)c1cccc2cncc(F)c12 [Ripasudil]
humans
  incidence of mild conjunctival hyperemia: up to 75%

## C[C@@H]1C[C@H]2[C@@H]3CCC4=CC(=O)C=C[C@]4(C)[C@@]3(F)[C@@H](O)C[C@]2(C)[C@@]1(O)C(=O)CO [dexamethasone]
[8]
  expression level of MYLK-4: higher than that of normal HTM cells
